Test results: US6737383B1, “Herbicidal oxadiazolidines” (priority 1999, dated 2004)

Legend:
cocklebur = assay: Test B pre/postemergence cocklebur; assay type: in vivo, Xanthium strumarium; settings: for Cocklebur plant response rating: scale of 0 to 10 where 0 is no effect and 10 is complete control
Summary of the method: (§1)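 Response is a visual 0-to-10 score relative to untreated plants, where 0 means no effect and 10 means complete control, taken twelve to sixteen days after application. Treatments went onto soil at planting and onto foliage of 1- to 4-leaf plants, using a surfactant-containing non-phytotoxic solvent.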

smallflower flatsedge = assay: Test B flood test smallflower flatsedge; assay type: in vivo, Cyperus difformis
Summary of the method: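 Plants were grown to the 2-leaf stage before treatment with test chemical, then held in a greenhouse for twelve to sixteen days. Injury was visually rated against untreated controls on a 0–10 scale, where 0 is no effect and 10 is complete control.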

corn = assay: Test B pre/postemergence corn; assay type: in vivo, Zea mays; settings: for Corn plant response rating: scale of 0 to 10 where 0 is no effect and 10 is complete control
Summary of the method: as §1

surinam grass = assay: Test B pre/postemergence surinam grass; assay type: in vivo, Brachiaria decumbens
Summary of the method: as §1

giant foxtail = assay: Test B pre/postemergence giant foxtail; assay type: in vivo, Setaria faberii; settings: for Giant foxtail plant response rating: scale of 0 to 10 where 0 is no effect and 10 is complete control
Summary of the method: as §1

wheat = assay: Test B pre/postemergence wheat; assay type: in vivo, Triticum aestivum; settings: for Wheat plant response rating: scale of 0 to 10 where 0 is no effect and 10 is complete control
Summary of the method: as §1

velvetleaf = assay: Test B pre/postemergence velvetleaf; assay type: in vivo, Abutilon theophrasti; settings: for Velvetleaf plant response rating: scale of 0 to 10 where 0 is no effect and 10 is complete control
Summary of the method: as §1

purple nutsedge = assay: Test B pre/postemergence purple nutsedge; assay type: in vivo, Cyperus rotundus; settings: for Nutsedge plant response rating: scale of 0 to 10 where 0 is no effect and 10 is complete control
Summary of the method: as §1

[1] = Preemergence, Rate 62 g/ha, scale 0 to 10 (0 no effect, 10 complete control)
[2] = Rate 500 g/ha, Postemergence, scale 0 to 10, 0 no effect, 10 complete control
[3] = Postemergence, Rate 125 g/ha, scale 0 to 10, 0 is no effect, 10 is complete control

CC(C)N(C(=O)n1oc(=O)n(C2CCC2)c1=O)c1ccc(F)cc1 [Compound 350]
Plant response rating, Cocklebur (cocklebur; [1]): 0
Cocklebur plant response rating (0 to 10 scale) (cocklebur; Preemergence, Rate 125 g/ha): 0
Cocklebur plant response rating (cocklebur; Preemergence, Rate 250 g/ha): 0
Cocklebur plant response rating (cocklebur; Preemergence, Rate 500 g/ha): 0
Cocklebur plant response rating (cocklebur; Rate 62 g/ha, Postemergence): 0
Plant response rating, Cocklebur (cocklebur; [2]): 3
Plant response rating, S. Flatsedge (smallflower flatsedge; Postemergence (flood test), Rate 125 g/ha, scale 0 to 10, 0 is no effect, 10 is complete control): 2
S. Flatsedge plant response rating (smallflower flatsedge; Rate 62 g/ha, Postemergence (flood test species), scale of 0 to 10 where 0 is no effect and 10 is complete control): 0
Plant response rating, S. Flatsedge (0 to 10 scale, 0 is no effect, 10 is complete control) (smallflower flatsedge; Rate 62 g/ha, flood test species, Pre-emergence, visual evaluation after twelve to sixteen days): 0
S. Flatsedge plant response rating (smallflower flatsedge; Rate 125 g/ha, Pre-emergence, flood test species, scale 0 to 10 where 0 is no effect and 10 is complete control): 0
S. Flatsedge plant response rating (smallflower flatsedge; Rate 250 g/ha, Pre-emergence, flood-test species, scale 0 to 10, 0 is no effect, 10 is complete control): 0
Plant response rating, S. Flatsedge (smallflower flatsedge; Rate 500 g/ha, listed under Postemergence (flood test species), scale 0 to 10, 0 no effect, 10 complete control): 8
S. Flatsedge plant response rating (smallflower flatsedge; Rate 500 g/ha, Pre-emergence, flood test species, scale 0 to 10 (0 no effect, 10 complete control)): 0
Plant response rating, Corn (corn; [3]): 0
Plant response rating, Corn (corn; [1]): 0
Corn plant response rating (0 to 10 scale) (corn; Preemergence, Rate 125 g/ha): 0
Corn plant response rating (corn; Preemergence, Rate 250 g/ha): 0
Corn plant response rating (corn; Preemergence, Rate 500 g/ha): 7
Corn plant response rating (corn; Rate 62 g/ha, Postemergence): 0
Plant response rating, Corn (corn; [2]): 0
Plant response rating, B. signalgrass (surinam grass; [3]): 0
Plant response rating, B. signalgrass (surinam grass; [1]): 0
B. signalgrass plant response rating (0 to 10 scale, 0 is no effect, 10 is complete control) (surinam grass; Preemergence, Rate 125 g/ha): 0
B. signalgrass plant response rating (surinam grass; Preemergence, Rate 250 g/ha, scale of 0 to 10 where 0 is no effect and 10 is complete control): 2
B. signalgrass plant response rating (surinam grass; Preemergence, Rate 500 g/ha, scale of 0 to 10 where 0 is no effect and 10 is complete control): 4
B. signalgrass plant response rating (surinam grass; Rate 62 g/ha, Postemergence, scale of 0 to 10 where 0 is no effect and 10 is complete control): 0
Plant response rating, B. signalgrass (surinam grass; Rate 250 g/ha, Postemergence, scale of 0 to 10 where 0 is no effect and 10 is complete control): 0
Plant response rating, B. signalgrass (surinam grass; [2]): 4
Plant response rating, Giant foxtail (giant foxtail; [3]): 8
Plant response rating, Giant foxtail (giant foxtail; [1]): 10
Giant foxtail plant response rating (0 to 10 scale) (giant foxtail; Preemergence, Rate 125 g/ha): 10
Giant foxtail plant response rating (giant foxtail; Preemergence, Rate 250 g/ha): 10
Giant foxtail plant response rating (giant foxtail; Preemergence, Rate 500 g/ha): 10
Giant foxtail plant response rating (giant foxtail; Rate 62 g/ha, Postemergence): 5
Plant response rating, Giant foxtail (giant foxtail; [2]): 9
Plant response rating, Wheat (wheat; [3]): 0
Plant response rating, Wheat (wheat; [1]): 0
Wheat plant response rating (0 to 10 scale) (wheat; Preemergence, Rate 125 g/ha): 0
Wheat plant response rating (wheat; Preemergence, Rate 250 g/ha): 2
Wheat plant response rating (wheat; Preemergence, Rate 500 g/ha): 3
Wheat plant response rating (wheat; Rate 62 g/ha, Postemergence): 0
Plant response rating, Wheat (wheat; [2]): 2
Plant response rating, Velvetleaf (velvetleaf; [3]): 0
Plant response rating, Velvetleaf (velvetleaf; [1]): 2
Velvetleaf plant response rating (0 to 10 scale) (velvetleaf; Preemergence, Rate 125 g/ha): 2
Velvetleaf plant response rating (velvetleaf; Preemergence, Rate 250 g/ha): 4
Velvetleaf plant response rating (velvetleaf; Preemergence, Rate 500 g/ha): 6
Velvetleaf plant response rating (velvetleaf; Rate 62 g/ha, Postemergence): 0
Plant response rating, Velvetleaf (velvetleaf; [2]): 6
Plant response rating, Nutsedge (purple nutsedge; [3]): 0
Nutsedge plant response rating (0 to 10 scale) (purple nutsedge; Preemergence, Rate 125 g/ha): 0
Nutsedge plant response rating (purple nutsedge; Preemergence, Rate 250 g/ha): 0
Nutsedge plant response rating (purple nutsedge; Preemergence, Rate 500 g/ha): 10
Nutsedge plant response rating (purple nutsedge; Rate 62 g/ha, Postemergence): 0
Plant response rating, Nutsedge (purple nutsedge; [2]): 0
